Measurements: patent US9878054B2, “Polypeptide and lipophilic moiety conjugate compositions, formulations, and uses related thereto” (Tufts Medical Center, Inc., priority 2012, dated 2018)

Tests used:
[1] = system: human platelets (thrombin); test: Thrombin-induced aggregation of human platelets; assay type: cell-based; settings: 3 μM compound
Experimental: A, Depiction of the mechanism of action of the cell-penetrating PZ-128 pepducin compound targeting the third intracellular loop (red) of PAR1. B, The NMR structure of PZ-128 was determined by simulated annealing methods using 210 distance restraints and included restraints to the proximal 3 hydrocarbons of the lipid. […] D, PZ-128 inhibits PAR1-dependent platelet aggregation. Gel filtered human platelets were treated with various concentrations of PZ-128 and then challenged with the PAR1 agonist SFLLRN (2.5 μM), 20 μM ADP, 200 μM AYPGKF or 1 mg/ml Ristocetin. E, Human platelets were treated with 3 μM PZ-128, 3 μM RWJ-56110, or 5% dextrose vehicle before the addition of various concentrations of thrombin (n=3-5).
PZ-128 also markedly right-shifted thrombin-induced aggregation by 5-fold. By comparison, the small molecule RWJ-56110 which antagonizes PAR1 at the extracellular ligand-binding site gave a 2-fold right shift in the thrombin activation curve of human platelets.
Whole blood from healthy donors was collected into a 30 ml syringe containing sodium citrate (0.4% vol/vol final). Platelets were isolated from platelet rich plasma (PRP) using Sepharose 2B columns in modified PIPES buffer.

human whole blood = test: Activated clotting time (ACT) of blood from PCI patients; settings: iv 0.75 mg/kg bolus then 1.75 mg/kg/hr, 30 min
Experimental: PZ-128 (χ) was spiked at various concentrations (0-150 μM) into fresh whole blood obtained from patients just prior to PCI. By comparison, blood was obtained at the 30 min time point from PCI patients (n=22) after a weight-adjusted dosage of bivalirudin (•) administered intravenously as a 0.75 mg/kg bolus followed by continuous infusion of 1.75 mg/kg/hr during the procedure. ACT assays were performed immediately using a Hemochron 801 with FTCA510-4 ACT cartridges containing silica, phospholipids, and diatomaceous earth (kaolin). The open circle represents the mean (±SD) ACT and mean bivalirudin concentration at the 30 min time point in the 22 PCI patients.
The effects of PZ-128 micelles were measured on activated clotting time (ACT) in human blood samples freshly obtained from adult patients undergoing PCI. At concentrations of PZ-128 up to 150 μM, there were no effects on ACT in the human PCI blood samples (FIG. 5).
Adult outpatients with angina referred for coronary angiography or PCI were enrolled in the Tufts Medical Center Adult Cardiac Catheterization Laboratory. Blood was collected prior to PCI or angiography and PZ-128 micelles were spiked into 1 ml samples of whole blood at a range of final concentrations (0-150 μmol/L). ACT was measured immediately in duplicate. […] Bivalirudin concentrations in plasma were measured by LC/MS/MS.

[2] = system: guinea pig carotid artery thrombosis; test: Guinea pig carotid artery FeCl3 injury arterial thrombosis model; assay type: in vivo; settings: sub-therapeutic dose alone (PZ-128 0.05 mg/kg; clopidogrel 1 mg/kg PO)
Experimental: A carotid artery FeCl3 injury model was used in guinea pigs to assess the anti-thrombotic efficacy of PZ-128 micelles within 15 min of initiation of drug administration. FeCl3 denudes the artery and exposes type I collagen and other subendothelial matrix proteins to initiate platelet-dependent thrombosis. Guinea pigs received 10 min intravenous infusions of PZ-128 micelles, 5 min prior to carotid artery injury. […] Mean occlusion times increased by 4-fold to 40 min at doses above 0.05 mg/kg PZ-128.
Male Hartley guinea pigs (150˜220 g) were purchased from Charles River Laboratories. A 0.61 mm-diameter catheter was inserted into the left jugular vein of anesthetized animals for administration of infusions of 5% USP dextrose vehicle or PZ-128 micelles. A 0.5 V-Doppler probe (Transonic Systems, Ithaca, N.Y.) was placed around the right carotid artery to record blood flow. A range of doses of PZ-128 micelles from 0.05 to 1.6 mg/kg in 0.9 ml volumes were delivered at an injection rate of 0.09 ml/min by a Harvard syringe pump. Five minutes after the infusion ended, arterial thrombosis was induced by placing a 5×5 mm^2 piece of filter paper soaked in freshly made 20% FeCl3 solution on the right carotid artery 5 mm distal to the probe for 20 minutes. […] To examine possible synergistic effects of PZ-128 micelles and P2Y12-ADP receptor inhibition, 1 mg/kg clopidogrel was administered by oral gavage 4 hours prior to FeCl3 injury. In these synergy experiments, the maximum endpoint was set at 90 minutes for occlusion time.

[3] = cited from earlier work
PAR1 = settings: read-out: EC50, activation of guinea pig platelets; PRP from vehicle-treated guinea pigs

With `NCC[C@H](NC(=O)[C@H](Cc1ccc(F)c(F)c1)NC(=O)Nc1ccc2c(CN3CCCC3)cn(Cc3c(Cl)cccc3Cl)c2c1)C(=O)NCc1ccccc1` [RWJ-56110, reference compound] the “Right shift of thrombin-induced aggregation curve” value [1] was 2 fold.
With `CC[C@H](C)[C@H](NC(=O)[C@H](CCC(=O)O)NC(=O)[C@H](CCC(=O)O)NC(=O)[C@H](Cc1ccccc1)NC(=O)[C@H](CC(=O)O)NC(=O)CNC(=O)[C@H](CC(N)=O)NC(=O)CNC(=O)CNC(=O)CNC(=O)CNC(=O)[C@@H]1CCCN1C(=O)[C@H](CCCNC(=N)N)NC(=O)[C@@H]1CCCN1C(=O)[C@H](N)Cc1ccccc1)C(=O)N1CCC[C@H]1C(=O)N[C@@H](CCC(=O)O)C(=O)N[C@@H](CCC(=O)O)C(=O)N[C@@H](Cc1ccc(O)cc1)C(=O)N[C@@H](CC(C)C)C(=O)O` [bivalirudin] the “Activated clotting time (ACT)” value (human whole blood) was “highly elevated”.
For `COC(=O)[C@H](c1ccccc1Cl)N1CCc2sccc2C1` [clopidogrel, reference compound], the “Protection against arterial occlusion when used alone” value [2] was “non-significant protection”.
For `CCOC(=O)N[C@@H]1CC[C@@H]2[C@@H](C1)C[C@H]1C(=O)O[C@H](C)[C@H]1[C@H]2/C=C/c1ccc(-c2cccc(F)c2)cn1` [vorapaxar], the “Pharmacodynamic (PD) half-life” value ([3]; oral administration) is listed as “up to 3 weeks” and the Plasma half-life ([3]; single loading dose) is listed as 120 to 264 h.
In the case of SFLLRN, the EC50 (PAR1) is reported as 2500 nM.
